Key:
[1] = tested on: MCF7 WT Brk expressing cells; experiment: PI staining and FACS analysis, % G1 content; type: cell-based, human; details: PD0332991 up to 100 nM
Description: Immunoprecipitation with IgG served as a negative control (FIG. 6C). DNA with Hoechst stain is in blue and is merged with red and green staining (FIG. 6D). (FIG. 6E) Cdk4 was immunoprecipitated from the lysates and recombinant Rb was added to perform an in vitro kinase assay in the presence of ATP Immunoblot analysis was performed to probe for Rb, Ser780 pRb and cdk4 Immunoprecipitation with IgG served as a negative control. (FIG. 6F) Cells were treated with different concentrations of PD0332291 or DMSO as a control at Day 2. Total cell numbers were analyzed by counting 24 and 48 hours post treatment to determine IC50 values. (FIG. 6G) Cells were treated with different concentration of PD032291 or DMSO and analyzed by PI staining and FACS analysis. % G1 content is plotted.
The PCR fragments were ligated to the T7pGEMEX human His-p27 or T7pGEMEX human Flag-p27 plasmid for expression in E. coli. Mutants Y74F, Y88F, and Y88/89F were previously described (12). Flag-tagged p27 mutants were purified by Flag-immunoprecipitation with Flag antibody (M-2, Sigma F-18C9) and eluted with Flag peptide (Sigma F-4799) according to manufacturer's protocol. His-tagged p27 mutants were purified by FPLC via his-trap affinity chromatography (His-Trap HP, GE Healthcare 71-5247-01). The affinity column was stripped according to manufacturer's protocol, then washed with 5 column volumes of 100 mM CoCl2. […]

[2] = tested on: MCF-7 inducible ALT cells; experiment: Mouse xenograft model, MCF7-ALT tumors; type: in vivo, NOD/SCID mice; details: day 17; start volume 200 mm3; Palbociclib 100 mg/kg daily gavage, doxycycline 0.1 mg/ml in drinking water
Description: FIG. 14: ALT slows tumor growth in animals, and ALT and PD dual treatment causes tumor regression. MCF-7 inducible ALT cells were injected into the 4th mammary gland of NOD/SCID mice. Tumors were allowed to develop to a volume of 200 mm3, before treatment. Vehicle: daily gavage with PBS. PD: Daily gavage of Palbociclib 100 mg/kg. Doxy: 0.1 mg/ml doxycycline added to the drinking water to allow continuous uptake and induction of ALT in the human cancer cells. Doxy+PD: Daily gavage of Palbociclib 100 mg/kg and 0.1 mg/ml doxycycline added to the drinking water. Vehicle treated animals rapidly progressed and by 17 days, tumor volumes were >3000 mm PD treatment slowed down tumor growth but by day 17, tumors were >2500. […] However, dual ALT and PD (doxy/PD) treatment, caused tumor regression by […] (e.g., from 200 mm3 down to 0-40 mm3), by day 5, which was durable up to day 19.
NP-ALT was added to cell media in the absence of fetal bovine serum for 6 hours. This media was removed and replaced with FBS+media, and cells were allowed to recover for 2 days, at which time, cell counts were determined. Counts were standardized to the proliferation seen in the NO FBS untreated control. • Expression in vivo. […] Tumor volume was monitored every other day using digital calipers. […] Doxy+PD: Daily gavage of Palbociclib 100 mg/kg and 0.1 mg/ml doxycycline added to the drinking water. • Quantitative RT-PCR. […]

MCF7 (ER/PR+, Her2-) = experiment: Palbociclib sensitivity of breast cancer line; type: cell-based; details: Homo sapiens; MCF7, high responder
MB 231 (TNBC) = experiment: Palbociclib sensitivity of breast cancer line; type: cell-based; details: Homo sapiens; MB 231, moderate-responder

IC50 (MCF7 (ER/PR+, Her2-)): 200 nM
IC50 (MB 231 (TNBC)): 400 nM
SMILES: CC(=O)c1c(C)c2cnc(Nc3ccc(N4CCNCC4)cn3)nc2n(C2CCCC2)c1=O [PD0332991]
G1 content [1]: approximately 55%
tumor volume [2]: > 2500 mm3

Reference: patent US11260100B2, “Compositions targeting the interaction domain between p27Kip1 and Brk and methods of use thereof to inhibit p27 Y phosphorylation and cdk4 activity” (The Research Foundation for the State University of New York, priority 2014, dated 2022)
